In the NIST ThermoML archive (doi:10.1016/j.jct.2007.11.006):
± gives the expanded uncertainty stated by the source.

Columns and labels:
[1] = molar enthalpy of vaporization or sublimation; details: 298.15 K; Crystal; Drop sublimation at initial T = 411 K and adjusted to 298.15 K
[2] = Molar enthalpy of transition or fusion; details: Crystal; DSC
[3] = Crystal

molar enthalpy [1]: 29.9 ± 1.48 kcal/mol | Molar enthalpy of transition or fusion [2]: 7.63 ± 0.645 kcal/mol | mass density ([3]; 298.1 K, 101.33 kPa, mass of pellet and dimensions): 1080 ± 10 kg/m3 | Normal melting temperature ([3]; DTA): 147.02 ± 0.43 °C
SMILES: COc1cc(O)cc(OC)c1OC [3,4,5-trimethoxyphenol]
